The target of data set [1] is cannabinoid receptor 1 (CB1R) (Homo sapiens (Human), UniProt P21554). The data set can be described thus: CB1R binding affinity (inhibition constant Ki).
The next data set deals with Caco-2. The data set can be described thus: Caco-2 permeability assay. The settings on record: Caco-2, assay conc 10 μM. In general terms: Caco-2 monolayers are a common model of the intestinal barrier.
Data set [2] has as its target T1, CB1 (Homo sapiens (Human), UniProt P21554). Nature of the data set: CB1 antagonism assay, green (β-Arrestin) NOMAD biosensor, MPXNomad-CB1 HEK293 cells. In kind it is cell-based. As for the experimental part: (§1) CB1 antagonism assays were conducted on red (cAMP) and green ([…]) NOMAD biosensors using MPXNomad-CB1 HEK293 cells using commercial kits and protocols provided by Innoprot (Derio, Spain).
Target sequence in this assay (P21554 whole entry): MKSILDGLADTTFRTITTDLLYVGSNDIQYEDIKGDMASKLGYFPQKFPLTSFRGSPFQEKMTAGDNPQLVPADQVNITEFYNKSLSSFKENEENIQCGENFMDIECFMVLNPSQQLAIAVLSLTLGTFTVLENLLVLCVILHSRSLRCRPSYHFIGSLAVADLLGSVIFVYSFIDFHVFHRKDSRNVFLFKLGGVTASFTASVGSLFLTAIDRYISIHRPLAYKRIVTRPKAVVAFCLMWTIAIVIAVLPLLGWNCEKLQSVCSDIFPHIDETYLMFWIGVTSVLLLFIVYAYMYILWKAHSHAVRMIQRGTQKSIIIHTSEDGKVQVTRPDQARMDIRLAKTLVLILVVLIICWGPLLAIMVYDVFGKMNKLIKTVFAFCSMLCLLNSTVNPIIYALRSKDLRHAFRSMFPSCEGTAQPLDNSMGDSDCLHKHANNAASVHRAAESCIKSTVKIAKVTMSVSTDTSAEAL

Data set [3] deals with T1, CB1. Nature of the data set: CB1 antagonism assay, red (cAMP) NOMAD biosensor, MPXNomad-CB1 HEK293 cells. Format: cell-based. As to the method: as §1
Target sequence in this assay (P21554 whole entry): as above
Data set [4] in a line: Caco-2 permeability assay. The settings on record: human, Caco-2.
The nature of the next data set: in vitro. The settings on record: human, Caco-2.
Data set [5] has as its target T1, CB1. Nature of the data set: Cannabinoid receptor modulator activity (Table 3, in words).
Target sequence in this assay (P21554 whole entry, species assumed): as the sequence (P21554 whole entry) above

A word on the Ki: it is a dissociation constant, usually derived from enzyme kinetics or from competition with a known ligand. A word on the IC50: it is the point on the concentration scale where inhibition reaches its midpoint. The term efflux ratio denotes a quotient of directional permeabilities that is used to spot active efflux. As usually defined, the Papp A→B is how fast a substance crosses the layer from the apical side. A higher Papp A→B goes with fast passage. Broadly, the Papp B→A is the apparent permeability from the basolateral to the apical side of a cell layer.

Where two headings read alike, the source gives them in different places.

For the compound `COCCSC(=NS(=O)(=O)c1ccc(C(F)(F)F)cc1)N1CC(c2ccccc2)C(c2ccc(Cl)cc2)=N1` (stereo not shown) [Compound 1], the Ki in data set [1] (read-out: CB1R Ki) stood at 6.9 nM.

Consider `N#CCCCSC(=NS(=O)(=O)c1ccc(C(F)(F)F)cc1)N1CC(c2ccccc2)C(c2ccc(Cl)cc2)=N1` (stereo not shown) [Compound 2], for which, in the data set on Caco-2, the “Mean (B-A/A-B) Efflux Ratio” value was 2.09, the “Mean Papp A-B” value is 0.00561 10^−6 cm/s and the “Mean Papp B-A” value was 0.0118 10^−6 cm/s. Moreover, on CB1 [2] (MPXNomad-CB1 HEK293 cells, CB1 antagonism, read-out: β-Arrestin IC50), the IC50 was found to be 1800 nM. For the same compound, on CB1 [3] (MPXNomad-CB1 HEK293 cells, CB1 antagonism, read-out: cAMP IC50), the IC50 stood at 2490 nM. For the same compound, the Ki in data set [1] (read-out: CB1R Ki) turned out to be 3.4 nM.

On to `COC(=O)[C@@H](C)CS/C(=N\S(=O)(=O)c1ccc(C(F)(F)F)cc1)N1CC(c2ccccc2)C(c2ccc(Cl)cc2)=N1` (stereo partly shown) [Compound 3A], for which the efflux ratio at 10 μM in data set [4] was determined as 1.26. Besides, the midpoint of inhibition against CB1 [2], the IC50, lay at 0.04 nM. The compound further came in with an IC50 on CB1 [3] of 0.61 nM. Moreover, in data set [1], the affinity, expressed as Ki, was 7.7 nM. In addition, in “in vitro”, the Papp A→B at 10 μM is 0.0096 ×10⁻⁶ cm/s and the Papp B→A at 10 μM turned out to be 0.0121 ×10⁻⁶ cm/s.

In the case of `O=C(CCS/C(=N\S(=O)(=O)c1ccc(C(F)(F)F)cc1)N1CC(c2ccccc2)C(c2ccc(Cl)cc2)=N1)NO` (stereo not shown) [Compound 3B], the “Activity at CB1 (in words)” value on CB1 [5] is given as “antagonist, potential”.

Take `NC(=O)CSC(=NS(=O)(=O)c1ccc(C(F)(F)F)cc1)N1CC(c2ccccc2)C(c2ccc(Cl)cc2)=N1` (stereo not shown) [Compound 3]: the Ki in data set [1] (read-out: CB1R Ki) was found to be 21.2 nM.

Regarding `C[Se]C(=NS(=O)(=O)c1ccc(C(F)(F)F)cc1)N1CC(c2ccccc2)C(c2ccc(Cl)cc2)=N1` (stereo not shown) [Compound 12], in data set [1] (read-out: CB1R Ki), the Ki is 3.3 nM.

As to `CSC(=NS(=O)(=O)c1ccc(C(F)(F)F)cc1)N1CC(c2ccccc2)C(c2ccc(Cl)cc2)=N1` (stereo not shown) [Compound 19], the Ki in data set [1] (read-out: CB1R Ki) amounted to 16.6 nM.

As for `NC(=O)C[Se]C(=NS(=O)(=O)c1ccc(C(F)(F)F)cc1)N1CC(c2ccccc2)C(c2ccc(Cl)cc2)=N1` (stereo not shown) [Compound 20], in the data set with Caco-2, the “Mean (B-A/A-B) Efflux Ratio” value was found to be 0.25, the “Mean Papp A-B” value is on record as 0.183 10^−6 cm/s and the “Mean Papp B-A” value is 0.0451 10^−6 cm/s. Also, in data set [1] (read-out: CB1R Ki), the inhibition constant (Ki) turned out to be 14.4 nM.

On to `COC(=O)C(C)C[Se]C(=NS(=O)(=O)c1ccc(Cl)cc1)N1CC(c2ccccc2)C(c2ccc(Cl)cc2)=N1` (stereo not shown) [Compound 23], for which, in data set [1] (read-out: CB1R Ki), the Ki amounted to 12.1 nM.

Values taken from patent publication US20250026723A1, “Cannabinoid Receptor Modulating Compounds” (THE UNITED STATES OF AMERICA, as represented by the …, priority 2021, published 2025).
